# Laboratory results: the NIST ThermoML archive (doi:10.1016/j.jct.2010.12.027)
# Numbers after ± are expanded uncertainties.
# Tests used:
# [1] = 298.15 K, 101 kPa, Liquid; for viscosity: Capillary tube (Ostwald / Ubbelohde) method; for mass density: Vibrating tube method
# [2] = xn = mol fraction of the nth substance listed; details: 298.15 K, 101 kPa, Liquid; for viscosity: Capillary tube (Ostwald / Ubbelohde) method; for mass density: Vibrating tube method
smiles,measurement,setting,value
CCCCN [1-butanamine],viscosity,[1],0.476 ± 0.01 mPa·s
same,mass density,[1],732.88 ± 0.26 kg/m3
CCCCN [1-butanamine] + CCCCCCn1cc[n+](C)c1.F[B-](F)(F)F,viscosity,[2]; x2 = 0,0.476 ± 0.01 mPa·s
same,viscosity,[2]; x2 = 0.0492,0.889 ± 0.021 mPa·s
same,viscosity,[2]; x2 = 0.0994,1.433 ± 0.034 mPa·s
same,viscosity,[2]; x2 = 0.1997,3.137 ± 0.072 mPa·s
same,viscosity,[2]; x2 = 0.3002,6.183 ± 0.14 mPa·s
same,viscosity,[2]; x2 = 0.3525,8.532 ± 0.19 mPa·s
same,viscosity,[2]; x2 = 0.4013,11.16 ± 0.26 mPa·s
same,viscosity,[2]; x2 = 0.4492,14.68 ± 0.34 mPa·s
same,viscosity,[2]; x2 = 0.5037,19.56 ± 0.46 mPa·s
same,viscosity,[2]; x2 = 0.5524,25.39 ± 0.6 mPa·s
same,viscosity,[2]; x2 = 0.6009,32.05 ± 0.77 mPa·s
same,viscosity,[2]; x2 = 0.7036,53.63 ± 1.3 mPa·s
same,viscosity,[2]; x2 = 0.7873,76.62 ± 2 mPa·s
same,viscosity,[2]; x2 = 0.8787,117.48 ± 3.6 mPa·s
same,mass density,[2]; x2 = 0,732.88 ± 0.26 kg/m3
same,mass density,[2]; x2 = 0.0492,778.02 ± 0.81 kg/m3
same,mass density,[2]; x2 = 0.0994,809.01 ± 0.79 kg/m3
same,mass density,[2]; x2 = 0.1997,888.25 ± 0.74 kg/m3
same,mass density,[2]; x2 = 0.3002,943.91 ± 0.65 kg/m3
same,mass density,[2]; x2 = 0.3525,968.66 ± 0.6 kg/m3
same,mass density,[2]; x2 = 0.4013,989.49 ± 0.6 kg/m3
same,mass density,[2]; x2 = 0.4492,1008.25 ± 0.6 kg/m3
same,mass density,[2]; x2 = 0.5037,1027.64 ± 0.63 kg/m3
same,mass density,[2]; x2 = 0.5524,1043.6 ± 0.67 kg/m3
same,mass density,[2]; x2 = 0.6009,1058.22 ± 0.7 kg/m3
same,mass density,[2]; x2 = 0.7036,1085.8 ± 0.8 kg/m3
same,mass density,[2]; x2 = 0.7873,1105.23 ± 0.89 kg/m3
same,mass density,[2]; x2 = 0.8787,1124.35 ± 1 kg/m3
CCCCCCn1cc[n+](C)c1.F[B-](F)(F)F [1-hexyl-3-methylimidazolium tetrafluoroborate],viscosity,[1],195.37 ± 7.2 mPa·s
same,mass density,[1],1146.7 ± 1.2 kg/m3
CCCCCCn1cc[n+](C)c1.F[B-](F)(F)F [1-hexyl-3-methylimidazolium tetrafluoroborate] + C1CCOC1,viscosity,[2]; x1 = 0.0498,0.891 ± 0.022 mPa·s
same,viscosity,[2]; x1 = 0.1008,1.564 ± 0.038 mPa·s
same,viscosity,[2]; x1 = 0.203,3.869 ± 0.088 mPa·s
same,viscosity,[2]; x1 = 0.2976,7.658 ± 0.17 mPa·s
same,viscosity,[2]; x1 = 0.3461,10.44 ± 0.23 mPa·s
same,viscosity,[2]; x1 = 0.3965,13.93 ± 0.31 mPa·s
same,viscosity,[2]; x1 = 0.4457,18.37 ± 0.42 mPa·s
same,viscosity,[2]; x1 = 0.5003,24.9 ± 0.58 mPa·s
same,viscosity,[2]; x1 = 0.5548,33.17 ± 0.78 mPa·s
same,viscosity,[2]; x1 = 0.6083,42.68 ± 1 mPa·s
same,viscosity,[2]; x1 = 0.7025,65.77 ± 1.7 mPa·s
same,viscosity,[2]; x1 = 0.7992,97.79 ± 2.8 mPa·s
same,viscosity,[2]; x1 = 0.8925,141.64 ± 4.6 mPa·s
same,viscosity,[2]; x1 = 1,195.37 ± 7.2 mPa·s
same,mass density,[2]; x1 = 0.0498,922.89 ± 0.76 kg/m3
same,mass density,[2]; x1 = 0.1008,956.61 ± 0.57 kg/m3
same,mass density,[2]; x1 = 0.203,1007.44 ± 0.48 kg/m3
same,mass density,[2]; x1 = 0.2976,1041.06 ± 0.43 kg/m3
same,mass density,[2]; x1 = 0.3461,1054.83 ± 0.41 kg/m3
same,mass density,[2]; x1 = 0.3965,1067.37 ± 0.42 kg/m3
same,mass density,[2]; x1 = 0.4457,1078.09 ± 0.45 kg/m3
same,mass density,[2]; x1 = 0.5003,1088.63 ± 0.49 kg/m3
same,mass density,[2]; x1 = 0.5548,1097.81 ± 0.54 kg/m3
same,mass density,[2]; x1 = 0.6083,1106.02 ± 0.59 kg/m3
same,mass density,[2]; x1 = 0.7025,1118.37 ± 0.7 kg/m3
same,mass density,[2]; x1 = 0.7992,1129 ± 0.84 kg/m3
same,mass density,[2]; x1 = 0.8925,1137.77 ± 0.98 kg/m3
same,mass density,[2]; x1 = 1,1146.7 ± 1.2 kg/m3
CCCCCCn1cc[n+](C)c1.F[B-](F)(F)F [1-hexyl-3-methylimidazolium tetrafluoroborate] + CCC(C)=O,viscosity,[2]; x1 = 0.0492,0.6 ± 0.014 mPa·s
same,viscosity,[2]; x1 = 0.0988,0.914 ± 0.022 mPa·s
same,viscosity,[2]; x1 = 0.2011,2.059 ± 0.047 mPa·s
same,viscosity,[2]; x1 = 0.2989,4.063 ± 0.092 mPa·s
same,viscosity,[2]; x1 = 0.3482,5.578 ± 0.13 mPa·s
same,viscosity,[2]; x1 = 0.3972,7.507 ± 0.17 mPa·s
same,viscosity,[2]; x1 = 0.4605,11.08 ± 0.25 mPa·s
same,viscosity,[2]; x1 = 0.4981,13.67 ± 0.32 mPa·s
same,viscosity,[2]; x1 = 0.55,18.57 ± 0.43 mPa·s
same,viscosity,[2]; x1 = 0.6057,24.46 ± 0.59 mPa·s
same,viscosity,[2]; x1 = 0.7054,43.38 ± 1.1 mPa·s
same,viscosity,[2]; x1 = 0.7955,69.4 ± 1.8 mPa·s
same,viscosity,[2]; x1 = 0.8931,110.34 ± 3.3 mPa·s
same,viscosity,[2]; x1 = 1,195.37 ± 7.2 mPa·s
same,mass density,[2]; x1 = 0.0492,845.71 ± 0.94 kg/m3
same,mass density,[2]; x1 = 0.0988,889.12 ± 0.71 kg/m3
same,mass density,[2]; x1 = 0.2011,946.15 ± 0.61 kg/m3
same,mass density,[2]; x1 = 0.2989,991.57 ± 0.58 kg/m3
same,mass density,[2]; x1 = 0.3482,1010.53 ± 0.56 kg/m3
same,mass density,[2]; x1 = 0.3972,1027.28 ± 0.57 kg/m3
same,mass density,[2]; x1 = 0.4605,1046.8 ± 0.61 kg/m3
same,mass density,[2]; x1 = 0.4981,1057.05 ± 0.63 kg/m3
same,mass density,[2]; x1 = 0.55,1070.3 ± 0.67 kg/m3
same,mass density,[2]; x1 = 0.6057,1082.75 ± 0.71 kg/m3
same,mass density,[2]; x1 = 0.7054,1102.84 ± 0.81 kg/m3
same,mass density,[2]; x1 = 0.7955,1119.38 ± 0.91 kg/m3
same,mass density,[2]; x1 = 0.8931,1132.37 ± 1 kg/m3
same,mass density,[2]; x1 = 1,1146.7 ± 1.2 kg/m3
CCCCCCn1cc[n+](C)c1.F[B-](F)(F)F [1-hexyl-3-methylimidazolium tetrafluoroborate] + CCCCN,viscosity,[2]; x1 = 1,195.37 ± 7.2 mPa·s
same,mass density,[2]; x1 = 1,1146.7 ± 1.2 kg/m3
CCCCCCn1cc[n+](C)c1.F[B-](F)(F)F [1-hexyl-3-methylimidazolium tetrafluoroborate] + CCOC(C)=O,viscosity,[2]; x1 = 0.0498,0.738 ± 0.018 mPa·s
same,viscosity,[2]; x1 = 0.1,1.188 ± 0.029 mPa·s
same,viscosity,[2]; x1 = 0.2027,2.674 ± 0.061 mPa·s
same,viscosity,[2]; x1 = 0.302,5.221 ± 0.12 mPa·s
same,viscosity,[2]; x1 = 0.3475,6.846 ± 0.16 mPa·s
same,viscosity,[2]; x1 = 0.3983,9.328 ± 0.21 mPa·s
same,viscosity,[2]; x1 = 0.4488,12.31 ± 0.28 mPa·s
same,viscosity,[2]; x1 = 0.501,16.47 ± 0.38 mPa·s
same,viscosity,[2]; x1 = 0.5487,21.49 ± 0.51 mPa·s
same,viscosity,[2]; x1 = 0.6022,28.48 ± 0.68 mPa·s
same,viscosity,[2]; x1 = 0.7075,48.11 ± 1.2 mPa·s
same,viscosity,[2]; x1 = 0.8066,80.43 ± 2.2 mPa·s
same,viscosity,[2]; x1 = 0.8908,119.88 ± 3.7 mPa·s
same,viscosity,[2]; x1 = 1,195.37 ± 7.2 mPa·s
same,mass density,[2]; x1 = 0.0498,925.56 ± 0.64 kg/m3
same,mass density,[2]; x1 = 0.1,952.69 ± 0.55 kg/m3
same,mass density,[2]; x1 = 0.2027,997.78 ± 0.52 kg/m3
same,mass density,[2]; x1 = 0.302,1031.52 ± 0.53 kg/m3
same,mass density,[2]; x1 = 0.3475,1044.35 ± 0.53 kg/m3
same,mass density,[2]; x1 = 0.3983,1057.37 ± 0.56 kg/m3
same,mass density,[2]; x1 = 0.4488,1068.89 ± 0.59 kg/m3
same,mass density,[2]; x1 = 0.501,1079.8 ± 0.63 kg/m3
same,mass density,[2]; x1 = 0.5487,1088.62 ± 0.67 kg/m3
same,mass density,[2]; x1 = 0.6022,1097.8 ± 0.72 kg/m3
same,mass density,[2]; x1 = 0.7075,1113.73 ± 0.82 kg/m3
same,mass density,[2]; x1 = 0.8066,1126.46 ± 0.93 kg/m3
same,mass density,[2]; x1 = 0.8908,1135.69 ± 1 kg/m3
same,mass density,[2]; x1 = 1,1146.7 ± 1.2 kg/m3
CCC(C)=O [butanone],viscosity,[1],0.388 ± 0.008 mPa·s
same,mass density,[1],799.87 ± 0.25 kg/m3
CCC(C)=O [butanone] + CCCCCCn1cc[n+](C)c1.F[B-](F)(F)F,viscosity,[2]; x2 = 0,0.388 ± 0.008 mPa·s
same,mass density,[2]; x2 = 0,799.87 ± 0.25 kg/m3
CCOC(C)=O [ethyl acetate],viscosity,[1],0.437 ± 0.009 mPa·s
same,mass density,[1],894.48 ± 0.25 kg/m3
CCOC(C)=O [ethyl acetate] + CCCCCCn1cc[n+](C)c1.F[B-](F)(F)F,viscosity,[2]; x2 = 0,0.437 ± 0.009 mPa·s
same,mass density,[2]; x2 = 0,894.48 ± 0.25 kg/m3
C1CCOC1 [tetrahydrofuran],viscosity,[1],0.475 ± 0.01 mPa·s
same,mass density,[1],882.13 ± 0.16 kg/m3
C1CCOC1 [tetrahydrofuran] + CCCCCCn1cc[n+](C)c1.F[B-](F)(F)F,viscosity,[2]; x2 = 0,0.475 ± 0.01 mPa·s
same,mass density,[2]; x2 = 0,882.13 ± 0.16 kg/m3
